Where a SMILES comes first, the peptide text is derived from it. [ ]: non-standard residue; d: D form. The star is where a group is joined. X1 = Cc1ccc(Nc2ncc3c(n2)N(C)C(=O)N(c2cc(C(=O)*)ccc2C)C3)cn1; Aib = CC(C)(N)C(=O)O
Columns and labels:
Test in all cases: kinase selectivity profiling
Assay type in all cases: biochemical
Conditions in all cases: 10µM ATP, read-out: % inhibition (relative to DMSO)
[1] = target: T1, ACK1 (Homo sapiens, UniProt Q07912)
T1 construct: purchased Reaction Biology Corp
Experimental: (§1) Full panel kinase profiling and kinase IC50 measurement were performed by using Reaction Biology Corp. (San Diego, USA).

[2] = target: T2, ARAF (Homo sapiens, UniProt P10398)
T2 construct: purchased Reaction Biology Corp
Experimental: as §1

[3] = target: T3, CDK1/cyclin E (Homo sapiens, UniProt P06493)
T3 construct: purchased Reaction Biology Corp
Experimental: as §1

[4] = target: T4, CDK6/cyclin D3 (Homo sapiens, UniProt Q00534)
T4 construct: purchased Reaction Biology Corp
Experimental: as §1

[5] = target: T5, CDK7/cyclin H (Homo sapiens, UniProt P50613)
T5 construct: purchased Reaction Biology Corp
Experimental: as §1

[6] = target: T6, CDK9/cyclin K (Homo sapiens, UniProt P50750)
T6 construct: purchased Reaction Biology Corp
Experimental: as §1

[7] = target: T7, CDK9/cyclin T1 (Homo sapiens, UniProt P50750)
T7 construct: purchased Reaction Biology Corp
Experimental: as §1

[8] = target: T8, CDK9/cyclin T2 (Homo sapiens, UniProt P50750)
T8 construct: purchased Reaction Biology Corp
Experimental: as §1

[9] = target: T9, CK1d (Homo sapiens, UniProt P48730)
T9 construct: purchased Reaction Biology Corp
Experimental: as §1

[10] = target: T10, DDR2 (Homo sapiens, UniProt Q16832)
T10 construct: purchased Reaction Biology Corp
Experimental: as §1

[11] = target: T11, DLK/MAP3K12 (Homo sapiens, UniProt Q12852)
T11 construct: purchased Reaction Biology Corp
Experimental: as §1

[12] = target: T12, EPHB3 (Homo sapiens, UniProt P54753)
T12 construct: purchased Reaction Biology Corp
Experimental: as §1

[13] = target: T13, EPHB4 (Homo sapiens, UniProt P54760)
T13 construct: purchased Reaction Biology Corp
Experimental: as §1

[14] = target: T14, ERK5/MAPK7 (Homo sapiens, UniProt Q13164)
T14 construct: purchased Reaction Biology Corp
Experimental: as §1

[15] = target: T15, ERN2/IRE2 (Homo sapiens, UniProt Q76MJ5)
T15 construct: purchased Reaction Biology Corp
Experimental: as §1

[16] = target: T16, FGFR3 (Homo sapiens, UniProt P22607)
T16 construct: purchased Reaction Biology Corp
Experimental: as §1

[17] = target: T17, FLT1/VEGFR1 (Homo sapiens, UniProt P17948)
T17 construct: purchased Reaction Biology Corp
Experimental: as §1

[18] = target: T18, GSK3a (Homo sapiens, UniProt P49840)
T18 construct: purchased Reaction Biology Corp
Experimental: as §1

[19] = target: T19, HCK (Homo sapiens, UniProt P08631)
T19 construct: purchased Reaction Biology Corp
Experimental: as §1

[20] = target: T20, ITK (Homo sapiens, UniProt Q08881)
T20 construct: purchased Reaction Biology Corp
Experimental: as §1

[21] = target: T21, JAK3 (Homo sapiens, UniProt P52333)
T21 construct: purchased Reaction Biology Corp
Experimental: as §1

[22] = target: T22, JNK1 (Homo sapiens, UniProt P45983)
T22 construct: purchased Reaction Biology Corp
Experimental: as §1

[23] = target: T23, MNK2 (Homo sapiens, UniProt Q9HBH9)
T23 construct: purchased Reaction Biology Corp
Experimental: as §1

[24] = target: T24, MRCKb/CDC42BPB (Homo sapiens, UniProt Q9Y5S2)
T24 construct: purchased Reaction Biology Corp
Experimental: as §1

[25] = target: T25, MYO3A (Homo sapiens, UniProt Q8NEV4)
T25 construct: purchased Reaction Biology Corp
Experimental: as §1

[26] = target: T26, NEK7 (Homo sapiens, UniProt Q8TDX7)
T26 construct: purchased Reaction Biology Corp
Experimental: as §1

[27] = target: T27, NEK8 (Homo sapiens, UniProt Q86SG6)
T27 construct: purchased Reaction Biology Corp
Experimental: as §1

[28] = target: T28, PAK2 (Homo sapiens, UniProt Q13177)
T28 construct: purchased Reaction Biology Corp
Experimental: as §1

[29] = target: T29, PKCepsilon (Homo sapiens, UniProt Q02156)
T29 construct: purchased Reaction Biology Corp
Experimental: as §1

[30] = target: T30, PKCzeta (Homo sapiens, UniProt Q05513)
T30 construct: purchased Reaction Biology Corp
Experimental: as §1

[31] = target: T31, PKD2/PRKD2 (Homo sapiens, UniProt Q9BZL6)
T31 construct: purchased Reaction Biology Corp
Experimental: as §1

[32] = target: T32, PKG2/PRKG2 (Homo sapiens, UniProt Q13237)
T32 construct: purchased Reaction Biology Corp
Experimental: as §1

[33] = target: T33, ROCK1 (Homo sapiens, UniProt Q13464)
T33 construct: purchased Reaction Biology Corp
Experimental: as §1

[34] = target: T34, RON/MST1R (Homo sapiens, UniProt Q04912)
T34 construct: purchased Reaction Biology Corp
Experimental: as §1

[35] = target: T35, TEC (Homo sapiens, UniProt P42680)
T35 construct: purchased Reaction Biology Corp
Experimental: as §1

[36] = target: T36, TESK1 (Homo sapiens, UniProt Q15569)
T36 construct: purchased Reaction Biology Corp
Experimental: as §1

[37] = target: T37, TIE2/TEK (Homo sapiens, UniProt Q02763)
T37 construct: purchased Reaction Biology Corp
Experimental: as §1

[38] = target: T38, TSSK3/STK22C (Homo sapiens, UniProt Q96PN8)
T38 construct: purchased Reaction Biology Corp
Experimental: as §1

[39] = target: T39, TXK (Homo sapiens, UniProt P42681)
T39 construct: purchased Reaction Biology Corp
Experimental: as §1

[40] = target: T40, TYRO3/SKY (Homo sapiens, UniProt Q06418)
T40 construct: purchased Reaction Biology Corp
Experimental: as §1

[41] = target: T41, WEE1 (Homo sapiens, UniProt P30291)
T41 construct: purchased Reaction Biology Corp
Experimental: as §1

[42] = target: T42, WNK3 (Homo sapiens, UniProt Q9BYP7)
T42 construct: purchased Reaction Biology Corp
Experimental: as §1

[43] = target: T43, p70S6Kb/RPS6KB2 (Homo sapiens, UniProt Q9UBS0)
T43 construct: purchased Reaction Biology Corp
Experimental: as §1

T13 sequence (P54760 16-987): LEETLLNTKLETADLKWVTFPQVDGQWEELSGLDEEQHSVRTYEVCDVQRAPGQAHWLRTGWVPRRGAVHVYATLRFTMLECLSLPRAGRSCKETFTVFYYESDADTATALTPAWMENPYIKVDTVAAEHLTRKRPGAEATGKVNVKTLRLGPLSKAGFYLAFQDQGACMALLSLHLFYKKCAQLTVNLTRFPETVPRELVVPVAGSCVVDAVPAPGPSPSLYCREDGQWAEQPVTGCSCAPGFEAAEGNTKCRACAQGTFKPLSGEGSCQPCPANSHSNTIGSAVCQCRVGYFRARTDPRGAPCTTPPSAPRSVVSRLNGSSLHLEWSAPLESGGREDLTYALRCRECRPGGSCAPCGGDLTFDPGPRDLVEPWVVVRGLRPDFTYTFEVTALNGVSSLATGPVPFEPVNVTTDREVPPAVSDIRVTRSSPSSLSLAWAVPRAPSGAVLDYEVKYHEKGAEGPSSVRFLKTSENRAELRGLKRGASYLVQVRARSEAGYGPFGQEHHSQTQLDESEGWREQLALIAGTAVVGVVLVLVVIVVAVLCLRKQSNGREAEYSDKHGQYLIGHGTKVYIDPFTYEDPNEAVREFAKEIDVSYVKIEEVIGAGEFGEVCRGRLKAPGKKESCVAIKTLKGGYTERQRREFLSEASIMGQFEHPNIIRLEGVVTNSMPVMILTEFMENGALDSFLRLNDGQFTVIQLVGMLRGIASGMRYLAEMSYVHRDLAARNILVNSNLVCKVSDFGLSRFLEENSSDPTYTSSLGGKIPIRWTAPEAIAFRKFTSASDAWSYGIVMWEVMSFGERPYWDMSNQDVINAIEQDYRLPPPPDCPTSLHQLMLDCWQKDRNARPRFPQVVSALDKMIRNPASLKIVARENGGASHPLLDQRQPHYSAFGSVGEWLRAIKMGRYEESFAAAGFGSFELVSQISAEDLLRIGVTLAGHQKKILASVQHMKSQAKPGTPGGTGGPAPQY
T23 sequence (Q9HBH9 whole entry): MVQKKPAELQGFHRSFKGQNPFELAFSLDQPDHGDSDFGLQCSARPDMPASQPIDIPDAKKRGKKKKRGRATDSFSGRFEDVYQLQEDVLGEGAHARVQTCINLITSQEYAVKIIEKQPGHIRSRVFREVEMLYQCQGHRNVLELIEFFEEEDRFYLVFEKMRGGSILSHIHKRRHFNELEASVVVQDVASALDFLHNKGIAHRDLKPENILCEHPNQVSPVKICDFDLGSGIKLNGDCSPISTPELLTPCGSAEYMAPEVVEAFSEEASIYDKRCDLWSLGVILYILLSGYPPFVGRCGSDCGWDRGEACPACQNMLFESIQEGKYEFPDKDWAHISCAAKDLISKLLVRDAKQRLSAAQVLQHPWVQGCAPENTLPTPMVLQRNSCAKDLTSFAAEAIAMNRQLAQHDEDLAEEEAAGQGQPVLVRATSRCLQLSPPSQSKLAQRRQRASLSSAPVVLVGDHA
T40 sequence (Q06418 41-890): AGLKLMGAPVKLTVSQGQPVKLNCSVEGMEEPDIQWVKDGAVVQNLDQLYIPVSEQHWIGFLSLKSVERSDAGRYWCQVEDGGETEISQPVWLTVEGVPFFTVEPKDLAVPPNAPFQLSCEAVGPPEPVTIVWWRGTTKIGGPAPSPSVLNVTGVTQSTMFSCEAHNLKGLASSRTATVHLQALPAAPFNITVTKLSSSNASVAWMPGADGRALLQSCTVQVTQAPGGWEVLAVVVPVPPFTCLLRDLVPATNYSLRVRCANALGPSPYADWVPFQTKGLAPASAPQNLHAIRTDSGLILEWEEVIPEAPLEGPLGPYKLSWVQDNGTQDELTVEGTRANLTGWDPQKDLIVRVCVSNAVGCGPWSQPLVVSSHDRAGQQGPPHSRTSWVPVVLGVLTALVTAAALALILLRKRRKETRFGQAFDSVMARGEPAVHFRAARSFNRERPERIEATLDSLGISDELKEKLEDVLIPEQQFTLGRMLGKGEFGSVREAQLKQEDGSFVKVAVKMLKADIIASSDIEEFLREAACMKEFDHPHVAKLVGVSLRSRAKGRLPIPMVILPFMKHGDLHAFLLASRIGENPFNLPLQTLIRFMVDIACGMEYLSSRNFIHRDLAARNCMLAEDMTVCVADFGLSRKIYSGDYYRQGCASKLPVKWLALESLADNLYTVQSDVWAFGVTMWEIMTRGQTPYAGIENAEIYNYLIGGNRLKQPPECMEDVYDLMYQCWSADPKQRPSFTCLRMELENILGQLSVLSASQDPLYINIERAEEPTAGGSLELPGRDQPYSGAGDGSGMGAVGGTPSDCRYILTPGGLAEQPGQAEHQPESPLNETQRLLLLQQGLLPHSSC
T18 sequence (P49840 whole entry): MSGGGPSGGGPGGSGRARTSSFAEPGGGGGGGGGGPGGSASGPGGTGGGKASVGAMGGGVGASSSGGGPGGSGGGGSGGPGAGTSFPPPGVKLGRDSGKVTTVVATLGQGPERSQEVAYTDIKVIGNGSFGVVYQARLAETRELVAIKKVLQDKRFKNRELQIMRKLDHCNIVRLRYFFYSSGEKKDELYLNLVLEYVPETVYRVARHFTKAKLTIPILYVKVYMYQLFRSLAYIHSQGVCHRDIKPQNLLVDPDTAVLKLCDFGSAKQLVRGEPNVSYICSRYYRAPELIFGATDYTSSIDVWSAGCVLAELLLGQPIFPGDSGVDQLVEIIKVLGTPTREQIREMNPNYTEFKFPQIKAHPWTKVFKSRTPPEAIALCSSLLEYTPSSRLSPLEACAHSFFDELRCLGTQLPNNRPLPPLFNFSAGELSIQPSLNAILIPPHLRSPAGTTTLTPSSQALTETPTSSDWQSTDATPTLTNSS
T1 sequence (Q07912 whole entry): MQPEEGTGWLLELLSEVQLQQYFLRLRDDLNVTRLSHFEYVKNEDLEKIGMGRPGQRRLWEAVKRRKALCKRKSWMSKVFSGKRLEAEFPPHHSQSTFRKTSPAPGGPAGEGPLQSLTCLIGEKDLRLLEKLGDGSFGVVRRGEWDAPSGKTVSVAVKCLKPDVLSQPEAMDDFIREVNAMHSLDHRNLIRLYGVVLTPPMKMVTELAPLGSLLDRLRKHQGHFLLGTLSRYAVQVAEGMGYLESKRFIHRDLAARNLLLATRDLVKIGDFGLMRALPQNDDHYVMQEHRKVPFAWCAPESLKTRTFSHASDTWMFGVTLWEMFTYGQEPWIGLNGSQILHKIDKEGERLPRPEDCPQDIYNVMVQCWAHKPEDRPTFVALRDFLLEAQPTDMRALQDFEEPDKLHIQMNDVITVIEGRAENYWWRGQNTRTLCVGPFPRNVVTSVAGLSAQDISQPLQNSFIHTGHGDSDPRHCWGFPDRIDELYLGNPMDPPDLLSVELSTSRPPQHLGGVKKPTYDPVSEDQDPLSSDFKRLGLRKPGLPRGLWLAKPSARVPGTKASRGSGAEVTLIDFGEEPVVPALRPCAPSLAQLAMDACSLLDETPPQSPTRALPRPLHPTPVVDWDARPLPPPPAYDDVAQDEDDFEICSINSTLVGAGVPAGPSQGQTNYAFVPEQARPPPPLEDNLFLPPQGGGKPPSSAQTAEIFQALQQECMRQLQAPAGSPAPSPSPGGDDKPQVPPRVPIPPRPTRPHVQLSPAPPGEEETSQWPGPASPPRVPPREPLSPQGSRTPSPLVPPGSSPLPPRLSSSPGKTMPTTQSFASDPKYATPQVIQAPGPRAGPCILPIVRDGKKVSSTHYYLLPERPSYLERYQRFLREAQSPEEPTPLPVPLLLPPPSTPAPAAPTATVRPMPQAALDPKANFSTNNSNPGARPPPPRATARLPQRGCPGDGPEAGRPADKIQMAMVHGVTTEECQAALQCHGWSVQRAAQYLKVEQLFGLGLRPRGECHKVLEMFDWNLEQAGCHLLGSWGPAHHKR
T2 sequence (P10398 whole entry): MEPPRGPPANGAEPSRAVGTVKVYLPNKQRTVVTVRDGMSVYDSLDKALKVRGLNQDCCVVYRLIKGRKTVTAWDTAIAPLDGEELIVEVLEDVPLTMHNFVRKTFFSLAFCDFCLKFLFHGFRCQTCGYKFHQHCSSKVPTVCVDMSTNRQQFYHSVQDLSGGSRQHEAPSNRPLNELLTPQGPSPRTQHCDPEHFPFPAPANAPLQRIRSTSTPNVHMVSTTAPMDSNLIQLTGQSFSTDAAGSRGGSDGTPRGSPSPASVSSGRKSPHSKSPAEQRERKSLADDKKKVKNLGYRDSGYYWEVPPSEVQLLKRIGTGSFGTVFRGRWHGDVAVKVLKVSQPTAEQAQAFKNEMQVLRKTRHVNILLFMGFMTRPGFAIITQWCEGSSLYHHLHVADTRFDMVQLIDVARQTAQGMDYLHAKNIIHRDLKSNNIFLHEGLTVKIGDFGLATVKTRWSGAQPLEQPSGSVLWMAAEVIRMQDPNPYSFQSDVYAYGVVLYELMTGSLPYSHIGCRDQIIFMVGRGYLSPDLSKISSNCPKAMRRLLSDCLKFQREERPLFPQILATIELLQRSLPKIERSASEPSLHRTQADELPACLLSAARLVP
T22 sequence (P45983 whole entry): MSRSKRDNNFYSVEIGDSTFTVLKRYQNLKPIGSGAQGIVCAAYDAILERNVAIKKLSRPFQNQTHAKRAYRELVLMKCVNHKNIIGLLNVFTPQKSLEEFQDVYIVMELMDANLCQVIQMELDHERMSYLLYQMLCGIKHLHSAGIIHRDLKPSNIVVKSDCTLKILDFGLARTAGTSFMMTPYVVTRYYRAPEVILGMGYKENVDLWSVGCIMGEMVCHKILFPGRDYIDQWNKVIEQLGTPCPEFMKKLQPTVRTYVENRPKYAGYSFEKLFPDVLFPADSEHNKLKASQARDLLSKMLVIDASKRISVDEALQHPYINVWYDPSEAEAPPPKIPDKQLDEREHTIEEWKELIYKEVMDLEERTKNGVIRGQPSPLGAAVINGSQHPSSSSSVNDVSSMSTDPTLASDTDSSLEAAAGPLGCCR

## Cc1ccc(Nc2ncc3c(n2)N(C)C(=O)N(c2cc(C(=O)N[C@H](C(=O)N4CCC[C@H]4C(=O)NC(C)(C)C(=O)N[C@@H](CC(C)C)C(=O)N(C)C)C(C)C)ccc2C)C3)cn1 [7a, (S)-N-(1-(((S)-1-(dimethylamino)-4-methyl-1-oxopentan-2-yl)amino)-2-methyl-1-oxopropan-2-yl)-1-((4-methyl-3-(1-methyl-7-((6-methylpyridin-3-yl)amino)-2-oxo-1,4-dihydropyrimido[4,5-d]pyrimidin-3(2H)-yl)benzoyl)-L-valyl)pyrrolidine-2-carboxamide] (X1-VP[Aib]L-NMe2)
[1]
  inhibition at 1 µM: 0%
[2]
  inhibition at 1 µM: 34%
[3]
  inhibition at 1 µM: 0%
[4]
  inhibition at 1 µM: 0%
[5]
  inhibition at 1 µM: 3%
[6]
  inhibition at 1 µM: 0%
[7]
  inhibition at 1 µM: 0%
[8]
  inhibition at 1 µM: 0%
[9]
  inhibition at 1 µM: 11%
[10]
  inhibition at 1 µM: 58%
[11]
  inhibition at 1 µM: 0%
[12]
  inhibition at 1 µM: 8%
[13]
  inhibition at 1 µM: 16%
[14]
  inhibition at 1 µM: 5%
[15]
  inhibition at 1 µM: 2%
[16]
  inhibition at 1 µM: 0%
[17]
  inhibition at 1 µM: 9%
[18]
  inhibition at 1 µM: 10%
[19]
  inhibition at 1 µM: 38%
[20]
  inhibition at 1 µM: 7%
[21]
  inhibition at 1 µM: 0%
[22]
  inhibition at 1 µM: 0%
[23]
  inhibition at 1 µM: 1%
[24]
  inhibition at 1 µM: 0%
[25]
  inhibition at 1 µM: 0%
[26]
  inhibition at 1 µM: 2%
[27]
  inhibition at 1 µM: 1%
[28]
  inhibition at 1 µM: 0%
[29]
  inhibition at 1 µM: 1%
[30]
  inhibition at 1 µM: 0%
[31]
  inhibition at 1 µM: 0%
[32]
  inhibition at 1 µM: 11%
[33]
  inhibition at 1 µM: 13%
[34]
  inhibition at 1 µM: 27%
[35]
  inhibition at 1 µM: 2%
[36]
  inhibition at 1 µM: 0%
[37]
  inhibition at 1 µM: 0%
[38]
  inhibition at 1 µM: 3%
[39]
  inhibition at 1 µM: 0%
[40]
  inhibition at 1 µM: 1%
[41]
  inhibition at 1 µM: 0%
[42]
  inhibition at 1 µM: 19%
[43]
  inhibition at 1 µM: 0%
